Data published in publication PMC6940896, “Development of a Highly Efficient Hybrid Peptide That Increases Immunomodulatory Activity Via the TLR4-Mediated Nuclear Factor-κB Signaling Pathway” (International Journal of Molecular Sciences, 2019).
Each block holds one molecule with its values, some of them ahead of it.

Columns and labels:
peritoneal macrophages = experiment: Peritoneal macrophage phagocytosis (neutral red uptake) in CTX-immunosuppressed mice; type: in vivo, mouse; details: peritoneal macrophages of mice, OD 540 nm, CTX 80 mg/kg ip days 1-3, peptide 10 mg/kg ip days 4-10, control group 55.67%, n = 12
Description: For the first 3 days, CTX (80 mg/kg mouse weight) was administered intraperitoneally once daily to establish the immunosuppressed animal model. From days 4 to 10 (7 days), peptides (10 mg/kg mouse weight) were administered intraperitoneally each day. The CTX group was only treated with CTX, and the control group was given sterile saline. The dose volume was 200 μL. Twenty-four hours after the last dose, the mice were killed and their tissues and blood collected for analysis.
Peritoneal macrophages were aseptically obtained from the different groups of mice by peritoneal lavage with 5 mL ice-cold phosphate-buffered saline (PBS). The peritoneal macrophages were further isolated by incubating peritoneal exudate cells at 37 °C in a moist atmosphere (5% CO2, 95% air) for 3 h to allow the cells to adhere. The adherent cells were washed twice and collected as peritoneal macrophages.
The phagocytic capacity of the peritoneal macrophages was measured by the neutral red uptake method [52]. […] The OD was measured using a microplate reader at 540 nm. The phagocytic rate was calculated in the following way:(4) hagocytic rate (%)=OD540(sample)/OD540(control) ×100% where OD540 (sample) is the absorbance at 540 nm by peptide-treated cells and OD540 (control) is the absorbance at 540 nm by the cells without peptides treated.

[1] = Ex vivo stability in plasma; type: in vitro ADME; details: rat plasma, in vitro, 37 °C, HPLC, log-linear regression; mean ± SEM of three biological replicates; read-out: t1/2, half-life in plasma (converted)
Description: The samples were collected into pre-chilled tubes containing 1 mL of acidic acetone (hydrochloric acid/acetone/H2O, 1:40:5, by volume). Subsequently, the mixture was centrifuged at 2 × 10^4 rpm at 4 °C for 20 min. The precipitates were dried in vacuo. The dried precipitates were dissolved in 0.5 mL of 1 M acetic acid. The peptide analysis was carried out according to the protocol for the study of Tα1 using HPLC [51]. The half-lives of the target peptides were calculated by a logarithm-linear regression analysis of the peptide concentrations.

[2] = target: T1, recombinant TLR4/MD2 complex (UniProt Q9QUK6 26-638; Q9JHF9 19-160); experiment: SPR; TLR4/MD2 immobilised by amino coupling on a ProteOn GLH chip (ProteOn XPR36); LTAa passed over at 0, 1.25, 2.5, 5 and 10 μM (methods print mM); 25 °C; PBS with 0.1% Tween 20 and 2% DMSO; 30 μL/min; global fit, homogeneous 1:1 model; details: both partners purified
T1 construct: Toll-like receptor 4 (TLR4) of the recombinant TLR4/MD2 complex; MD-2 (MD2, lymphocyte antigen 96) of the recombinant TLR4/MD2 complex; source: bought: R&D Systems
T1 sequence (looked up) 1: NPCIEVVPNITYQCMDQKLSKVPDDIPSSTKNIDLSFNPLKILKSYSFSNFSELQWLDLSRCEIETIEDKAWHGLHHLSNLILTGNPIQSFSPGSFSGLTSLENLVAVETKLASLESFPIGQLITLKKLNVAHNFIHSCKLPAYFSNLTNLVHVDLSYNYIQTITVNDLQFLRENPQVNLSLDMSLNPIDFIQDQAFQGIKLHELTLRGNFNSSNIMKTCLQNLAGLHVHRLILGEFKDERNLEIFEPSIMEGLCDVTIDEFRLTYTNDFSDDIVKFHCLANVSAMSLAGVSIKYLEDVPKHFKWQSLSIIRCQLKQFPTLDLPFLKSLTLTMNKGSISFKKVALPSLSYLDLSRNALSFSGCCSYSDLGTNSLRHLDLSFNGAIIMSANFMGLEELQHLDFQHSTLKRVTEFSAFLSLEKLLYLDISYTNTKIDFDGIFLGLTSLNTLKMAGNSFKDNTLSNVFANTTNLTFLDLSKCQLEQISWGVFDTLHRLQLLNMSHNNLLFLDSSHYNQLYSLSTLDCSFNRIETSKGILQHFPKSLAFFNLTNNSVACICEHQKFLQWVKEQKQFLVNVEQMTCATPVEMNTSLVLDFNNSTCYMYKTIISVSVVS
T1 sequence (looked up) 2: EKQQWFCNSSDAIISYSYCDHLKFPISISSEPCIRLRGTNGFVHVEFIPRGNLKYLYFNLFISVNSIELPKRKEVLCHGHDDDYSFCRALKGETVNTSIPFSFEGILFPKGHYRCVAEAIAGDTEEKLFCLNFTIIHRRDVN

Molecule: O=P1(N(CCCl)CCCl)NCCCO1 (stereo not drawn) [CTX, cyclophosphamide, reference compound]
macrophage phagocytic rate (peritoneal macrophages): 31.93%

Molecule: CC[C@H](C)[C@H](NC(=O)[C@H](CCCCN)NC(=O)[C@H](CCC(=O)O)NC(=O)[C@H](CCCCN)NC(=O)[C@H](CO)NC(=O)[C@H](CCCCN)NC(=O)[C@H](CCCNC(=N)N)NC(=O)[C@H](Cc1ccccc1)NC(=O)[C@H](Cc1ccccc1)NC(=O)[C@H](CC(=O)O)NC(=O)CNC(=O)[C@H](CC(C)C)NC(=O)[C@@H](N)CC(C)C)C(=O)NCC(=O)N[C@@H](CCCCN)C(=O)N[C@@H](CCC(=O)O)C(=O)N[C@@H](Cc1ccccc1)C(=O)N[C@@H](CCCCN)C(=O)N[C@@H](CCCNC(=N)N)C(=O)N[C@H](C(=O)N[C@H](C(=O)N[C@@H](CCC(N)=O)C(=O)N[C@@H](CCCNC(=N)N)C(=O)N[C@H](C(=O)N[C@@H](CCCCN)C(=O)N[C@@H](CC(=O)O)C(=O)N[C@@H](Cc1ccccc1)C(=O)N[C@@H](CC(C)C)C(=O)N[C@@H](CCCNC(=N)N)C(=O)N[C@@H](CC(N)=O)C(=O)N[C@@H](CC(C)C)C(=O)N[C@H](C(=O)N1CCC[C@H]1C(=O)N[C@@H](CCCNC(=N)N)C(=O)N[C@H](C(=O)N[C@@H](CCC(=O)O)C(=O)N[C@@H](CO)C(=O)O)[C@@H](C)O)C(C)C)[C@@H](C)CC)C(C)C)[C@@H](C)CC [LL-37]
half-life [1]: 186 ± 52.2 min

Kd [2]: 0.0491 nM
B1: LL-37-Tα1a hybrid peptide (LTAa) (peptide)
peptide: IGKEFKRIVQRIKDFLRNLVPRTEKEKKEVVE
notes: LL-37, human cationic host-defense peptide, residues 13-36; Thymosin alpha-1 (Tα1), residues 17-24 (Tα1a); (32 residues); source: synthetic peptide (solid-phase, KangLong Biochemistry; purity >95%)
